Reference: patent US7695930B2, “Method for the detection, identification and/or quantification of microoganisms with peptidase activity using phenoxazinone derivatives as enzyme substrates” (Biomerieux, priority 2003, dated 2010)

Columns and labels:
Type in all cases: cell-based
Conditions in all cases: 50 mg/l
Candida albicans [1] = experiment: Leucine-peptidase detection on agar medium (Example 11)
Description: (§1) The detection medium was prepared by mixing 1.4 g of biogelytone (bioMérieux), 0.84 g of meat extract (bioMérieux), 2.24 g of NaCl (Merck), 280 μl of a solution of IPTG (isopropylthio-β-D-galactopyranoside, BIOSYNTH) in water (concentration 10 g/l) and 4.2 g of European agar (bioMérieux).
(§2) The substrate of the invention obtained in Example 2, in which the amino acid is leucine (leucine-9-aminobenzo[a]phenoxazin-5-one or Leu-ABP), or else a substrate of the prior art, which is leucine-aminomethylcoumarin (Leu-AMC, BACHEM), was then added in the following way: 280 ml of osmosed water were added to the medium, and the mixture was melted in a waterbath at 100° C. The mixture was autoclaved for 15 min at 121° C. and cooled to 50° C. in a waterbath.
(§3) The medium was then poured into Petri dishes.
(§4) The coloration of these colonies, the diffusion, and also the intensity of this coloration were noted.
(§5) The results were expressed as intensity of coloration using an arbitrary scale ranging from 0 to 4 as a basis and also as diffusion also using an arbitrary scale ranging from 0 to 4 as a basis.

Klebsellia pneumoniae = experiment: as above
Description: as §1, §2, §3, §4, §5

Enterobacter cloaccae = experiment: as above
Description: as §1, §2, §3, §4, §5

Citrobacter freundii = experiment: as above
Description: as §1, §2, §3, §4, §5

Escherichia coli [2] = experiment: as above
Description: as §1, §2, §3, §4, §5

Enterococcus faecalis [3] = experiment: as above
Description: as §1, §2, §3, §4, §5

Serratia marcescens = experiment: as above
Description: as §1, §2, §3, §4, §5

Staphylococcus aureus = experiment: as above
Description: as §1, §2, §3, §4, §5

Pseudomonas aeruginosa = experiment: as above
Description: as §1, §2, §3, §4, §5

Candida albicans [4] = experiment: Prolyl-peptidase detection on agar medium (Example 12); as to color of the colony: key: B corresponds to fluorescent blue; R corresponds to pink
Description: (§6) The detection media were prepared by mixing 1.68 g of yeast extract (bioMérieux), 1.4 g of biocase (bioMérieux), 1.26 g of malt extract (bioMérieux), 0.08 g of glucose (Merck) and 3.92 g of agar (bioMérieux).
(§7) 280 ml of osmosed water were added to the powder, and the mixture was then melted in a waterbath at 100° C. The product was separated into two flasks, each of 140 ml. Autoclaving was carried out at 121° C. for 15 min and the product was cooled to 50° C. in a waterbath.
(§8) L-Prolyl-7-amino-4-methylcoumarin (Pro-AMC, Bachem) was then added to the first flask as a control and L-prolyl-9-aminobenzo[a]phenoxazin-5-one (Pro-ABP, substrate of the invention obtained in Example 2, in which the amino acid is L-Proline) was then added to the second flask at the final concentration of 50 mg/l.
(§9) The size of the colonies, their coloration and also the intensity of this coloration were noted.

Klebsiella pneumoniae = experiment: as above
Description: as §6, §7, §8, §9

Candida tropicalis = experiment: as above
Description: as §6, §7, §8, §9

Trichosporon beigelii = experiment: as above; as to color of the colony: key: B corresponds to fluorescent blue; R corresponds to pink
Description: as §6, §7, §8, §9

Candida glabrata = experiment: as above
Description: as §6, §7, §8, §9

Candida guilliermondii = experiment: as above; as to color of the colony: key: B corresponds to fluorescent blue; R corresponds to pink
Description: as §6, §7, §8, §9

Escherichia coli [5] = experiment: as above
Description: as §6, §7, §8, §9

Enterococcus faecalis [6] = experiment: as above
Description: as §6, §7, §8, §9

Saccharomyces cerevisiae = experiment: as above
Description: as §6, §7, §8, §9
For color of the colony in this document: key: B corresponds to fluorescent blue; R corresponds to pink.

**Q.** With `Cc1cc(=O)oc2cc(NC(=O)[C@@H](N)CC(C)C)ccc12` [Leu-AMC, leucine-aminomethylcoumarin, reference compound] as the compound, how does the growth diameter (Candida albicans [1]; 24 h) read?
**A.** Its growth diameter is 0.4 mm.

**Q.** And the “intensity of coloration, scale 0 to 4” value (Candida albicans [1]; 24 h)?
**A.** Its value is 0.25.

**Q.** What about the growth diameter (Candida albicans [1]; 48 h) of the same compound?
**A.** The growth diameter was 0.5 mm.

**Q.** What about the “intensity of coloration, scale 0 to 4” value (Candida albicans [1]; 48 h) of the same compound?
**A.** Its value is 1.5.

**Q.** What about the growth diameter (Klebsellia pneumoniae; 24 h) of the same compound?
**A.** The growth diameter was 1.8 mm.

**Q.** What about the “intensity of coloration, scale 0 to 4” value (Klebsellia pneumoniae; 24 h) of the same compound?
**A.** Its value is 3.

**Q.** What about the growth diameter (Klebsellia pneumoniae; 48 h) of the same compound?
**A.** Its growth diameter is 1.8 mm.

**Q.** What about the “intensity of coloration, scale 0 to 4” value (Klebsellia pneumoniae; 48 h) of the same compound?
**A.** The value was 3.

**Q.** And the growth diameter (Enterobacter cloaccae; 24 h)?
**A.** Its growth diameter is 0.8 mm.

**Q.** What about the “intensity of coloration, scale 0 to 4” value (Enterobacter cloaccae; 24 h) of the same compound?
**A.** Its value is 3.

**Q.** And the growth diameter (Enterobacter cloaccae; 48 h)?
**A.** The growth diameter was 0.8 mm.

**Q.** What about the “intensity of coloration, scale 0 to 4” value (Enterobacter cloaccae; 48 h) of the same compound?
**A.** The value was 3.

**Q.** And the growth diameter (Citrobacter freundii; 24 h)?
**A.** Its growth diameter is 0.8 mm.

**Q.** And the “intensity of coloration, scale 0 to 4” value (Citrobacter freundii; 24 h)?
**A.** Its value is 3.

**Q.** What about the growth diameter (Citrobacter freundii; 48 h) of the same compound?
**A.** The growth diameter was 1 mm.

**Q.** What about the “intensity of coloration, scale 0 to 4” value (Citrobacter freundii; 48 h) of the same compound?
**A.** The value was 3.

**Q.** What about the growth diameter (Escherichia coli [2]; 24 h) of the same compound?
**A.** The growth diameter was 1.8 mm.

**Q.** What about the “intensity of coloration, scale 0 to 4” value (Escherichia coli [2]; 24 h) of the same compound?
**A.** Its value is 3.

**Q.** And the growth diameter (Escherichia coli [2]; 48 h)?
**A.** The growth diameter was 1.8 mm.

**Q.** What about the “intensity of coloration, scale 0 to 4” value (Escherichia coli [2]; 48 h) of the same compound?
**A.** Its value is 3.

**Q.** And the growth diameter (Enterococcus faecalis [3]; 24 h)?
**A.** The growth diameter was 0.4 mm.

**Q.** What about the “intensity of coloration, scale 0 to 4” value (Enterococcus faecalis [3]; 24 h) of the same compound?
**A.** The value was 0.5.

**Q.** And the growth diameter (Enterococcus faecalis [3]; 48 h)?
**A.** The growth diameter was 0.4 mm.

**Q.** And the “intensity of coloration, scale 0 to 4” value (Enterococcus faecalis [3]; 48 h)?
**A.** Its value is 1.5.

**Q.** What about the growth diameter (Serratia marcescens; 24 h) of the same compound?
**A.** The growth diameter was 0.5 mm.

**Q.** What about the “intensity of coloration, scale 0 to 4” value (Serratia marcescens; 24 h) of the same compound?
**A.** The value was 2.

**Q.** What about the growth diameter (Serratia marcescens; 48 h) of the same compound?
**A.** Its growth diameter is 0.7 mm.

**Q.** What about the “intensity of coloration, scale 0 to 4” value (Serratia marcescens; 48 h) of the same compound?
**A.** The value was 3.

**Q.** And the growth diameter (Staphylococcus aureus; 24 h)?
**A.** Its growth diameter is 1.7 mm.

**Q.** What about the “intensity of coloration, scale 0 to 4” value (Staphylococcus aureus; 24 h) of the same compound?
**A.** Its value is 2.5.

**Q.** And the growth diameter (Staphylococcus aureus; 48 h)?
**A.** Its growth diameter is 1.7 mm.

**Q.** And the “intensity of coloration, scale 0 to 4” value (Staphylococcus aureus; 48 h)?
**A.** Its value is 3.

**Q.** What about the growth diameter (Pseudomonas aeruginosa; 24 h) of the same compound?
**A.** Its growth diameter is 2 mm.

**Q.** And the “intensity of coloration, scale 0 to 4” value (Pseudomonas aeruginosa; 24 h)?
**A.** The value was 1.

**Q.** And the growth diameter (Pseudomonas aeruginosa; 48 h)?
**A.** Its growth diameter is 2 mm.

**Q.** What about the “intensity of coloration, scale 0 to 4” value (Pseudomonas aeruginosa; 48 h) of the same compound?
**A.** Its value is 3.

**Q.** What does the source list for `Cc1cc(=O)oc2cc(NC(=O)[C@@H]3CCCN3)ccc12` [Pro-AMC, L-Prolyl-7-amino-4-methylcoumarin, reference compound]?
**A.** growth diameter (Candida albicans [4]; 24 h): 1.2 mm; intensity of coloration, scale 0 to 4 (Candida albicans [4]; 24 h): 2; growth diameter (Candida albicans [4]; 48 h): 2.5 mm; intensity of coloration, scale 0 to 4 (Candida albicans [4]; 48 h): 3; growth diameter (Klebsiella pneumoniae; 24 h): 2.5 mm; intensity of coloration, scale 0 to 4 (Klebsiella pneumoniae; 24 h): 0.25; growth diameter (Klebsiella pneumoniae; 48 h): 3 mm; intensity of coloration, scale 0 to 4 (Klebsiella pneumoniae; 48 h): 0.25; growth diameter (Candida tropicalis; 24 h): 1.2 mm; growth diameter (Candida tropicalis; 48 h): 2 mm; growth diameter (Trichosporon beigelii; 24 h): 0.7 mm; intensity of coloration, scale 0 to 4 (Trichosporon beigelii; 24 h): 0.25; growth diameter (Trichosporon beigelii; 48 h): 3 mm; intensity of coloration, scale 0 to 4 (Trichosporon beigelii; 48 h): 2; growth diameter (Candida glabrata; 24 h): 0.3 mm; growth diameter (Candida glabrata; 48 h): 1.7 mm; growth diameter (Candida guilliermondii; 24 h): 0.4 mm; growth diameter (Candida guilliermondii; 48 h): 1.8 mm; intensity of coloration, scale 0 to 4 (Candida guilliermondii; 48 h): 3; growth diameter (Escherichia coli [5]; 24 h): 3 mm; intensity of coloration, scale 0 to 4 (Escherichia coli [5]; 24 h): 0.5; growth diameter (Escherichia coli [5]; 48 h): 3 mm; intensity of coloration, scale 0 to 4 (Escherichia coli [5]; 48 h): 0.5; growth diameter (Enterococcus faecalis [6]; 24 h): 0.8 mm; growth diameter (Enterococcus faecalis [6]; 48 h): 1.2 mm; growth diameter (Saccharomyces cerevisiae; 24 h): 0.3 mm; growth diameter (Saccharomyces cerevisiae; 48 h): 1.7 mm

**Q.** What does the source list for “L-prolyl-9-aminobenzo[a]phenoxazin-5-one [Pro-ABP]”?
**A.** color of the colony (Candida albicans [4]; 24 h): R; growth diameter (Candida albicans [4]; 24 h): 0.8 mm; intensity of coloration, scale 0 to 4 (Candida albicans [4]; 24 h): 2; color of the colony (Candida albicans [4]; 48 h): R; growth diameter (Candida albicans [4]; 48 h): 2.5 mm; intensity of coloration, scale 0 to 4 (Candida albicans [4]; 48 h): 2; growth diameter (Klebsiella pneumoniae; 24 h): 2 mm; growth diameter (Candida tropicalis; 24 h): 1.2 mm; growth diameter (Candida tropicalis; 48 h): 1.8 mm; growth diameter (Trichosporon beigelii; 24 h): 0.5 mm; color of the colony (Trichosporon beigelii; 48 h): R; growth diameter (Trichosporon beigelii; 48 h): 1.8 mm; intensity of coloration, scale 0 to 4 (Trichosporon beigelii; 48 h): 2; growth diameter (Candida glabrata; 24 h): 0.4 mm; growth diameter (Candida glabrata; 48 h): 1.8 mm; growth diameter (Candida guilliermondii; 24 h): 0.3 mm; color of the colony (Candida guilliermondii; 48 h): R; growth diameter (Candida guilliermondii; 48 h): 1.8 mm; intensity of coloration, scale 0 to 4 (Candida guilliermondii; 48 h): 2; color of the colony (Escherichia coli [5]; 24 h): R; growth diameter (Escherichia coli [5]; 24 h): 3 mm; intensity of coloration, scale 0 to 4 (Escherichia coli [5]; 24 h): 0.25; color of the colony (Escherichia coli [5]; 48 h): R; growth diameter (Escherichia coli [5]; 48 h): 3 mm; intensity of coloration, scale 0 to 4 (Escherichia coli [5]; 48 h): 3; growth diameter (Enterococcus faecalis [6]; 24 h): 0.7 mm; growth diameter (Enterococcus faecalis [6]; 48 h): 0.7 mm; growth diameter (Saccharomyces cerevisiae; 24 h): 0.5 mm; growth diameter (Saccharomyces cerevisiae; 48 h): 2 mm
